Values of other authors in patent US9278976B2, “Aminotetrahydropyrans as dipeptidyl peptidase-IV inhibitors for the treatment of diabetes” (Merck Sharp & Dohme Corp., priority 2008, dated 2016).

Columns and labels:
[1] = rats; doubled from day 7
[2] = mouse, cyclophosphamide-induced neutropenia

SMILES	cardiac allograft survival [1] [day]	hematopoiesis [2]
CC(C)N1CCC(c2ccccc2)(c2ccccc2)CC1 [Prodipine, Pro-Pro-diphenyl-phosphonate]	14	–
CC(C)[C@H](N)C(=O)N1CCC[C@H]1B(O)O [Val-Boro-Pro]	–	stimulated hematopoiesis
